Experiments:
[1] = biological target: CB2 receptor (Homo sapiens, UniProt P34972); settings: background, known compound; cited from earlier work
[2] = system: arachidonic acid-induced swelling of the ear in female Sabra mice; experiment: Arachidonic acid-induced ear inflammation in the mouse; format: in vivo; settings: for arachidonic acid-induced ear swelling: injected 30 to 90 min before arachidonic acid
Procedure: The other ear was treated with […] of EtOH and served as a control. Ear swelling was assessed by measuring ear thickness with a dial thickness gauge (Mitutoyo, Japan) just before treatment and every 15 min after A′A application for 90 min. […] N=5 for each treatment group.
Ear inflammation was measured by assessing ear tissue swelling after topical application of arachidonic acid. […] J., Wagner, B., Ballaron, S. & De Young, L. M. (1984) J. Invest. Dernlatol. 82, 367–371]. […] The opposite ear served as a control ([…] ethanol). Ear thickness was determined (in 0.01 mm units) every 15 min for 90 min starting immediately after arachidonic acid application using a dial thickness gauge (Mitutoyo, Japan).

[3] = system: experimental autoimmune arthritis in CD-1 male mice; experiment: Experimental autoimmune arthritis (collagen type 2 in complete Freund's adjuvant); format: in vivo, mouse
Procedure: Experimental autoimmune arthritis is induced in animals by immunization with collagen type 2 in complete Freund's adjuvant.
Adult CD-1 male mice (27–33 gr), at least five per treatment group, are used in the study. Each animal is administered 100 μg/ml collagen type 2 in 0.1 mL complete Freund's adjuvant. The collagen is administered subcutaneously into the base of the tail. The volume of each hind paw is measured using a plethysmometer (commercially available from Hugo Basill of Italy) before collagen administration and on days 1, 4, 7, 10, 13, and 16 of treatment (30 minutes after drug treatment). […] All treatments are administered intraperitoneally. […] The same procedure is performed with blank cosolvent. Diclofenac is prepared at Pharmos, as a solution of 1 mg/ml. At the same time the paws are measured they are also clinically evaluated according to the method of R. O Williams, Proc. Natl. Acad. Sci. USA: 89: 9784–9788, wherein 0=normal, 1=slight swelling and erythema, 2=pronounced edematous swelling, and 3=joint rigidity.
The major arthritis related sign that is evident in experimental autoimmune arthritis is swelling of the paws. […] The differences are compared using a non parametric analysis (Wilcoxon Rank Sum Test).

[4] = system: female Sabra mice; experiment: Inhibition of intestinal motility (fecal pellets voided over 2 hr); format: in vivo, mouse
Procedure: Intestinal motility was assessed every 15 min (over a 2 hr period) by the cumulative number of fecal pellets voided in a two hour period after separating the mice into individual cages. […] By 90 min all treated groups differed from controls.
Rectal temperature was also recorded as a measure of central activity.

[5] = system: acetic acid induced inflammatory bowel disease in male Sprague Dawley rats; experiment: Acetic acid induced inflammatory bowel disease; format: in vivo, rat
Procedure: Animals were clinically followed for 1 week and body weight, presence of blood in the stool, and stool consistency were monitored and recorded daily and scored on a scale of 0–4 according to the scale provided in Table 1 [Murthy et al., Dig. Dis. Sci., 38(9), 1722–1734, (1993)].
Seven days post disease induction animals were euthanized with phenobarbital (100 mg/kg i.p.), the whole colon excised, slit longitudinally, and examined under a magnifying glass. Any visible damage to the colon was recorded and scored.
Clinical outcome was analyzed using analysis of variance (ANOVA) followed by Duncan's post hoc test. A non-parametric test (Wilcox Rank Sum Test) was used to evaluate the gross pathology findings.

[6] = system: formalin-induced peripheral pain in mice; experiment: Formalin test for peripheral pain; format: in vivo, mouse
Procedure: Pain was assessed as the total number of licks of the injected hindpaw recorded for the duration of one hr. Early (5 min) and late (25–60 min) phase pain were observed as described in Calignano, A., La Rana, G., Giuffrida, A. & Piomelli, D. (1998) Nature (London) 394, 277–280.
Pain mediated by the peripheral nervous system, was tested in the “formalin test” for cutaneous (peripheral) pain [Tjolson, A., Berge, O-G., Hunskaar, S., Rosland, J. H. and Hole, K. (1992) Pain, 51, 5–17; Calignano, A., La Rana, G., Giuffrida, A & Piomelli, D. (1998) Nature (London) 394, 277–280; and Jagger, S. I., Hasnie, F. S., Sellaturay, S. and Rice, A.S.C. (1998) Pain 76, 189–199]. […] Immediately after formalin administration pain was assessed every 5 min for 1 hr by the number of times the animal licks the formalin-injected paw.

[7] = system: female C57/BL6 mice
Procedure: This difference in binding is reflected in the results of the pharmacological assays. […] Such effects are considered to be mediated by the CBI receptor.
R. (1993) Eur. J. Pharmacol. 231, 313–314]. At various times after injection mice were tested in four assays consecutively. The four assays were (1) motor activity (ambulation and rearing) in an open field (20×30 cm, divided into 12 squares of equal size) for 8 min; (2) immobility (“catalepsy”) on a ring of 5.5 cm diameter for 4 min; (3) body temperature with a telethermometer (Yellow Springs Instruments Co.); and (4) analgesia on a hot plate maintained at 55° C., measured as the latency (in seconds) until the first hind paw lick or jump from the plate (the latter response was rarely observed) with a maximum of 45 s.

[8] = system: anesthetized rats; experiment: Blood pressure assay in anesthetized cannulated rats; format: in vivo, rat
Procedure: Systemic blood pressure was monitored in male rats (Sabra strain, 270–350 g). A chronic cannula (P 50, Clay Adams) was implanted into the femoral artery under pentobarbital anesthesia (60 mg/kg). The jugular vein was cannulated for drug administration. The arterial cannula was attached to a pressure transducer (Db23, Statham City) and the transducer was connected to a data acquisition system (CODAS software and scroller card, Dataq, Ohio). Pressure was sampled at a rate of 1/s.
Recordings were taken for 30–60 min before treatment.

[9] = system: EAE in Lewis rats; experiment: Experimental autoimmune encephalomyelitis (EAE); format: in vivo, rat; settings: intravenous, treatment from day 10 to day 18 post induction
[10] = 40 mg/kg i.p., tested 10, 30 or 150 min after administration

Chain of CB2 receptor (P34972 whole entry): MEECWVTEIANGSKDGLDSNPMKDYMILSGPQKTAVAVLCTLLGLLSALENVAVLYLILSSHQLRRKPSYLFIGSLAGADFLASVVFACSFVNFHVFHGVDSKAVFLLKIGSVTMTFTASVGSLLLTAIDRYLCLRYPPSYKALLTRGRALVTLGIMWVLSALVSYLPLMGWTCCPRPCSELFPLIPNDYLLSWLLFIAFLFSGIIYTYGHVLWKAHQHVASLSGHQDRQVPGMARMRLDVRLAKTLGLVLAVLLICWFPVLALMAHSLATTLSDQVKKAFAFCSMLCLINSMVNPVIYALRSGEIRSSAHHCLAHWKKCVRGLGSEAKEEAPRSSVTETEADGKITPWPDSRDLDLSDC

Compound: C=C1CC[C@@H]2[C@@H](C1)c1c(OC)cc(C(C)(C)CCCCCC)cc1OC2(C)C [L-759,656]
- CB1/CB2 binding ratio [1]: > 1000

Compound: COc1ccc2c(c1)c(CC(=O)O)c(C)n2C(=O)c1ccc(Cl)cc1 [indomethacin]
- arachidonic acid-induced ear swelling ([2]; 20 mg/kg i.p.): significant reduction of arachidonic acid-induced ear swelling
- anti-inflammatory effect compared with HU-308 (50 mg/kg) ([2]; indomethacin 20 mg/kg i.p.): greater than that produced by HU-308

Compound: O=C(O)Cc1ccccc1Nc1c(Cl)cccc1Cl [diclofenac, reference compound]
- paw volume compared to vehicle ([3]; 10 mg/kg i.p. every 3 days, positive control): smaller paw volume compared to the vehicle treated rats, but this difference is not statistically significant

Compound: Cc1c(C(=O)NN2CCCCC2)nn(-c2ccc(Cl)cc2Cl)c1-c1ccc(Cl)cc1 [SR 141716A]
- arachidonic acid-induced ear swelling, antagonist by itself ([2]; 5 mg/kg i.p., alone): by itself reduced arachidonic acid-induced ear swelling

Compound: SR 144528
- anti-inflammatory effect, antagonist by itself ([2]; 0.5 mg/kg, alone): did not by itself induce an anti-inflammatory effect

Compound: CCCCCCC(C)(C)c1cc(OC)c([C@H]2C=C(CO)[C@H]3CC2C3(C)C)c(OC)c1 (single isomer, unassigned; (+)) [HU-308, (+)-(1-a-H,-(3-H,5-a-H)-4-(2,6-dimethoxy-4-(1,1-dimethylheptyl)phenyl]-6,6-dimethylbicycloj3.1.1]hept-2-ene-2-carbinol]
- incidence and severity of swelling of the paws ([3]; 2-15 mg/kg i.p. every three days or once daily): decreased incidence and severity of swelling of the paws
- inhibition of intestinal mobility ([4]; 20 mg/kg i.p., mice): complete inhibition of intestinal mobility
- number of fecal boli voided vs controls ([4]; 100 mg/kg i.p., after 75 min): significantly fewer boli than controls
- inhibition of intestinal motility in presence of CB2 antagonist SR144528 ([4]; HU-308 plus SR144528): in part blocked this effect
- severity of acid induced inflammatory bowel disease ([5]; 10 and 20 mg/kg i.p. daily for seven days): can reduce the severity of acid induced inflammatory bowel disease
- reduction of pathological lesion severity in the gastrointestinal tract (gross pathology score) compared to vehicle ([5]; i.p. daily for 7 days, p<0.05 for 10 mg/kg, p=0.052 for 20 mg/kg): 35%
- formalin-induced peripheral pain (licks of injected hindpaw), late phase ([6]; 50 mg/kg i.p., 90 min before formalin, late phase (25-60 min)): reduced peripheral pain during the late phase of pain behavior
- formalin-induced peripheral pain, early versus late phase ([6]; 50 mg/kg i.p., early (5 min) and late (25-60 min) phase): effects were only observed during the late phase
- peripheral analgetic effect after CB1 antagonist SR 141716A ([6]; SR 141716A injected 15 min before HU-308): not by SR 141716A
- peripheral analgetic effect after CB2 antagonist SR 144528 ([6]; SR144528 injected 15 min before HU-308 50 mg/kg i.p.): prevented by SR 144528
- activity in an open field trial (ambulation, rearing) [7, 10]: no decrease in their activity in an open field trial
- analgesia on a hot plate [7, 10]: no analgesia on a hot plate
- body temperature [7, 10]: no reduction in body temperature
- catalepsy (immobility on a ring) [7, 10]: no catalepsy
- activity in the tetrad of behavioral tests specific for THC-type CNS activity ([7]; mice, summary): no activity
- effect on blood pressure ([8]; 30 mg/kg i.v., anesthetized cannulated rats): lowers blood pressure
- hypotensive effect after CB1 antagonist SR 141716A ([8]; SR141716A 3 mg/kg injected 5 min prior to HU-308 30 mg/kg i.v.): not by the CB1 antagonist SR 141716A
- hypotensive effect after CB2 antagonist SR 144528 ([8]; SR144528 1 mg/kg injected 5 min prior to HU-308 30 mg/kg i.v.): blocked by the CB2 antagonist SR 144528
- time for blood pressure effect to return to normal after administration ([8]; i.v. bolus, preliminary observations): < 30 min
- effect on blood pressure, lower doses ([8]; i.v. doses lower than 30 mg/kg): did not have a significant effect
- arachidonic acid-induced ear swelling ([2]; 50 mg/kg i.p.): significant reduction of arachidonic acid-induced ear swelling
- anti-inflammatory effect of HU-308 after CB1 antagonist SR 141716A ([2]; SR 141716A 5 mg/kg administered 15 min before HU-308 50 mg/kg i.p.): did not prevent the anti-inflammatory effect of HU-308
- anti-inflammatory effect of HU-308 after CB2 antagonist SR 144528 ([2]; SR 144528 0.5 mg/kg before HU-308 50 mg/kg i.p.): reduced the anti-inflammatory effect of HU-308
- mean clinical score of EAE [9]: diminution of mean clinical score

Source: patent US7214716B2, “Agonists specific for the peripheral cannabinoid receptor” (Yissum Research Development Co. of the Hebrew University of …, priority 2000, dated 2007)
